The values that follow come from patent US11136317B2, “NADPH oxidase 4 inhibitors” (ACTELION PHARMACEUTICALS LTD, priority 2015, dated 2021).

The test concerns the target T1, human NOX4 (Homo sapiens, UniProt Q9NPH5).
T1 construct: The full-length human NOX4 (NM_016931.3) transcript was cloned; expressed in transfected cells
T1 sequence (Q9NPH5 1-578): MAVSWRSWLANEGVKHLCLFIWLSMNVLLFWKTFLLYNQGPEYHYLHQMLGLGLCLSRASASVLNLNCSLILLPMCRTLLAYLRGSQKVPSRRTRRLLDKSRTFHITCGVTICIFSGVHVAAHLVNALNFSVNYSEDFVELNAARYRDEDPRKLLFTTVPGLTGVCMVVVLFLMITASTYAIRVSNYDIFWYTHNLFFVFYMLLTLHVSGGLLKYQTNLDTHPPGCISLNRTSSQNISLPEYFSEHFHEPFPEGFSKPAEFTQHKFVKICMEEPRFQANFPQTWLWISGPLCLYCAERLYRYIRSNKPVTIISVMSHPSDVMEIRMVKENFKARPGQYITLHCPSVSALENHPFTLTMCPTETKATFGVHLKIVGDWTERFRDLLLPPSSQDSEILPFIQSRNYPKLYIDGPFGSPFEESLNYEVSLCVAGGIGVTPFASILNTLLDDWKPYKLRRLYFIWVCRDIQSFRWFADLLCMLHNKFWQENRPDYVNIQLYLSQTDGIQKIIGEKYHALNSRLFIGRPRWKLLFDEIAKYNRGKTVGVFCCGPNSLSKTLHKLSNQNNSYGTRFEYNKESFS
T1 sequence (P13498 1-195 partner): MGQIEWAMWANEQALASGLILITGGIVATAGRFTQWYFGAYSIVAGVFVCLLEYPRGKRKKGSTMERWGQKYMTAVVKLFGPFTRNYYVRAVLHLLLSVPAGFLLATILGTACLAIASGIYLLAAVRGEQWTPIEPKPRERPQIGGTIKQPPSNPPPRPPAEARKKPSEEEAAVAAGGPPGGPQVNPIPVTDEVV
The test can be described thus: Amplex Red activity assay (cellular H2O2 formation in hNOX4 T-REx-293 cells). It counts as cell-based. To be noted: tet-induced 24 h, extracellular H2O2 by Amplex Red, 60 min 25° C., geometric mean if determined several times. As for the experimental part:
The nucleotide sequence and the amino acid sequence for the human NOX4 (Entrez Gene ID 50507) is known in the art and are published. The potency and efficacy of the compounds of Formula (I) are assessed for their potential to inhibit the formation of ROS in a cellular assay.
The full-length human NOX4 (NM_016931.3) transcript was cloned into the pDONR™221 vector (Life Technologies™) in order to generate, by site-specific integration according to the recommendation of the manufacturer (Life Technologies™), a recombinant pJTI™ R4 DEST CMV-TO vector containing the NOX4 coding information controlled by tetracycline (tet) responsive tet-on cytomegalovirus promoter (hNOX4 pDEST).
Modified human embryonic kidney cells overexpressing a tet receptor (Jump-In™ T-REx™ HEK293; Life Technologies™) were transfected with the NOX4-containing tet-on vector (hNOX4 pDEST) to generate a stable recombinant cell pool (hNOX4 T-REx-293). hNOX4 T-REx-293 cells were cultured in DMEM containing 4.5 g/L glucose supplemented with 10% fetal calf serum, penicillin (100 U/mL), streptomycin (100 μg/mL), geneticin (1 mg/mL), and blasticidin (5 μg/mL) at 37° C. in air with 5% CO2. Human Nox4 expression was induced with tet (1 μg/mL) for 24 h and extracellular H2O2 was quantified using the Amplex Red reagent (Life Technologies™).
Compounds were prepared as 10 mM stock solution in DMSO vehicle, then diluted in 384-well plates using DMSO followed by a transfer of the dilutions into the assay plate. As a control, diphenylene iodonium was included at a final concentration of 10 μM. Compounds were tested at 10 concentrations in the range from 50 μM highest to 100 nM lowest.
Cellular H2O2 formation was measured using the Amplex Red reagent. […] Cells were seeded into 384-well clear bottom plates at a density of 20 000 cells per well in presence or absence of compounds. […] All wells contained 1.25% of DMSO. The plates were kept at 25° C. for 60 min. The amount of produced resorufin was detected with the Synergy™ Mx microplate reader (BioTek) with excitation and emission wavelengths set to 550 nm and 600 nm, respectively. Fluorescence was measured for each well and the fluorescence at 600 nm wavelength was compared to the fluorescence of the vehicle in place of compound. Inhibitory activities of example compounds were determined by calculating the IC50 value (the concentration of compound needed to inhibit 50% of the enzyme activity). The calculated IC50 values may fluctuate depending on the daily cellular assay performance. Fluctuations of this kind are known to those skilled in the art.
One may read the IC50 as the point on the concentration scale where inhibition reaches its midpoint. As for `O=C(Nc1ccc2oc(N3CCCC4(CCO4)C3)nc2c1)c1ccc2c(c1)CCO2` (stereo not shown) [Example 25, 2,3-Dihydro-benzofuran-5-carboxylic acid [2-(1-oxa-6-aza-spiro[3.5]non-6-yl)-benzooxazol-5-yl]-amide], the concentration for half-maximal inhibition (IC50) came out at 804 nM. With `O=C(Nc1ccc2oc(N3CCCCC34COC4)nc2c1)c1ccc2c(c1)CCO2` [Example 26, 2,3-Dihydro-benzofuran-5-carboxylic acid [2-(2-oxa-5-aza-spiro[3.5]non-5-yl)-benzooxazol-5-yl]-amide], the IC50 came out at 1490 nM. On to `O=C(Nc1ccc2oc(N3CCC4(CCO4)CC3)nc2c1)c1ccc2c(c1)CCO2` [Example 27, 2,3-Dihydro-benzofuran-5-carboxylic acid [2-(1-oxa-7-aza-spiro[3.5]non-7-yl)-benzooxazol-5-yl]-amide], for which the half-inhibitory concentration (IC50) came out at 729 nM. Consider `O=C(Nc1ccc2oc(N3CCC4(CCCO4)CC3)nc2c1)c1ccc2c(c1)CCO2` [Example 29, 2,3-Dihydro-benzofuran-5-carboxylic acid [2-(1-oxa-8-aza-spiro[4.5]dec-8-yl)-benzooxazol-5-yl]-amide], for which the half-maximal inhibitory concentration (IC50) amounted to 541 nM. As for `O=C(Nc1ccc2oc(N3CC4(CCOCC4)C3)nc2c1)c1ccc2c(c1)CCO2` [Example 30, 2,3-Dihydro-benzofuran-5-carboxylic acid [2-(7-oxa-2-aza-spiro[3.5]non-2-yl)-benzooxazol-5-yl]-amide], the 50% inhibitory concentration (IC50) is 1230 nM.

Turning to `O=C(Nc1ccc2oc(N3CC4(CCCO4)C3)nc2c1)c1ccc2c(c1)CCO2` [Example 31, 2,3-Dihydro-benzofuran-5-carboxylic acid [2-(5-oxa-2-aza-spiro[3.4]oct-2-yl)-benzooxazol-5-yl]-amide], the IC50 was 2170 nM.

In the case of `O=C(Nc1ccc2oc(N3CC(N4CCC(O)CC4)C3)nc2c1)c1ccc2c(c1)CCO2` [Example 32, 2,3-Dihydro-benzofuran-5-carboxylic acid {2-[3-(4-hydroxy-piperidin-1-yl)-azetidin-1-yl]-benzooxazol-5-yl}-amide], the 50% inhibitory concentration (IC50) came out at 2410 nM. Regarding `CN1CCCC2(C1)CN(c1nc3cc(NC(=O)c4ccc5c(c4)CCO5)ccc3o1)C2` [Example 33, 2,3-Dihydro-benzofuran-5-carboxylic acid [2-(6-methyl-2,6-diaza-spiro[3.5]non-2-yl)-benzooxazol-5-yl]-amide], the IC50 stood at 2140 nM.

For the molecule `O=C(Nc1ccc2oc(N3CC4(CCCCO4)C3)nc2c1)c1ccc2c(c1)CCO2` [Example 34, 2,3-Dihydro-benzofuran-5-carboxylic acid [2-(5-oxa-2-aza-spiro[3.5]non-2-yl)-benzooxazol-5-yl]-amide], the half-inhibitory concentration (IC50) was 1220 nM.

Regarding `O=C(Nc1ccc2oc(N3CCC34CCC4)nc2c1)c1ccc2c(c1)CCO2` [Example 35, 2,3-Dihydro-benzofuran-5-carboxylic acid [2-(1-aza-spiro[3.3]hept-1-yl)-benzooxazol-5-yl]-amide], the concentration for half-maximal inhibition (IC50) came to 379 nM. As to `O=C(Nc1ccc2oc(N3CCC34CCOCC4)nc2c1)c1ccc2c(c1)CCO2` [Example 36, 2,3-Dihydro-benzofuran-5-carboxylic acid [2-(7-oxa-1-aza-spiro[3.5]non-1-yl)-benzooxazol-5-yl]-amide], the IC50 is 404 nM. Regarding `CC(C)(C)OC(=O)C1CN(c2nc3cc(NC(=O)c4ccc5c(c4)CCO5)ccc3o2)C1` [Example 37, 1-{5-[(2,3-Dihydro-benzofuran-5-carbonyl)-amino]-benzooxazol-2-yl}-azetidine-3-carboxylic acid tert-butyl ester], the concentration for half-maximal inhibition (IC50) stood at 841 nM.

In the case of `O=C(Nc1ccc2oc(N3CCCC3=O)nc2c1)c1ccc2c(c1)CCO2` [Example 38, 2,3-Dihydro-benzofuran-5-carboxylic acid [2-(2-oxo-pyrrolidin-1-yl)-benzooxazol-5-yl]-amide], the half-inhibitory concentration (IC50) was determined as 1750 nM. The same measure for `O=C(Nc1ccc2oc(N3CCS(=O)(=O)CC3)nc2c1)c1ccc2c(c1)OCCO2` [Example 39, 2,3-Dihydro-benzo[1,4]dioxine-6-carboxylic acid [2-(1,1-dioxo-thiomorpholin-4-yl)-benzooxazol-5-yl]-amide]: 444 nM; for `O=C(Nc1ccc2oc(N3CCS(=O)(=O)CC3)nc2c1)c1ccc2c(c1)CCCO2` [Example 40, Chroman-6-carboxylic acid [2-(1,1-dioxo-thiomorpholin-4-yl)-benzooxazol-5-yl]-amide]: 812 nM; for `CN1CCOc2ccc(C(=O)Nc3ccc4oc(N5CCS(=O)(=O)CC5)nc4c3)cc21` [Example 41, 4-Methyl-3,4-dihydro-2H-benzo[1,4]oxazine-6-carboxylic acid [2-(1,1-dioxo-thiomorpholin-4-yl)-benzooxazol-5-yl]-amide]: 2520 nM.

With `O=C(Nc1ccc2oc(N3CCC[C@@H](O)C3)nc2c1)c1ccc2c(c1)CCO2` [Example 42, (R)—N-(2-(3-hydroxypiperidin-1-yl)benzo[d]oxazol-5-yl)-2,3-dihydrobenzofuran-5-carboxamide], the 50% inhibitory concentration (IC50) was 566 nM. As for `O=C(Nc1ccc2oc(N3CCC[C@H](O)C3)nc2c1)c1ccc2c(c1)CCO2` [Example 43, 2,3-Dihydro-benzofuran-5-carboxylic acid [2-((S)-3-hydroxy-piperidin-1-yl)-benzooxazol-5-yl]-amide], the half-maximal inhibitory concentration (IC50) worked out at 541 nM.

As for `CC(C)OC1CN(c2nc3cc(NC(=O)c4ccc5c(c4)CCO5)ccc3o2)C1` [Example 44, 2,3-Dihydro-benzofuran-5-carboxylic acid [2-(3-isopropoxy-azetidin-1-yl)-benzooxazol-5-yl]-amide], the IC50 was determined as 1140 nM. Take `O=C(Nc1ccc2oc(N3CC[C@@H](O)C3)nc2c1)c1ccc2c(c1)CCO2` [Example 45, 2,3-Dihydro-benzofuran-5-carboxylic acid [2-((R)-3-hydroxy-pyrrolidin-1-yl)-benzooxazol-5-yl]-amide]: the half-maximal inhibitory concentration (IC50) amounted to 573 nM. Turning to `O=C(Nc1ccc2oc(N3CC[C@H](O)C3)nc2c1)c1ccc2c(c1)CCO2` [Example 46, 2,3-Dihydro-benzofuran-5-carboxylic acid [2-((S)-3-hydroxy-pyirolidin-1-yl)-benzooxazol-5-yl]-amide], the IC50 was determined as 570 nM. The same measure for `O=C(Nc1ccc2oc(N3CC(O)C3)nc2c1)c1ccc2c(c1)CCO2` [Example 47, 2,3-Dihydro-benzofuran-5-carboxylic acid [2-(3-hydroxy-azetidin-1-yl)-benzooxazol-5-yl]-amide]: 657 nM; for `O=C(Nc1ccc2oc(N3CCC(O)CC3)nc2c1)c1ccc2c(c1)CCO2` [Example 48, 2,3-Dihydro-benzofuran-5-carboxylic acid [2-(4-hydroxy-piperidin-1-yl)-benzooxazol-5-yl]-amide]: 448 nM. Turning to `O=C(Nc1ccc2oc(N3CC(c4ccccc4)C3)nc2c1)c1ccc2c(c1)CCO2` [Example 49, 2,3-Dihydro-benzofuran-5-carboxylic acid [2-(3-phenyl-azetidin-1-yl)-benzooxazol-5-yl]-amide], the IC50 was 1230 nM.

In the case of `O=C(Nc1ccc2oc(N3CCC4(CC3)COC4)nc2c1)c1ccc2c(c1)CCO2` [Example 50, 2,3-Dihydro-benzofuran-5-carboxylic acid [2-(2-oxa-7-aza-spiro[3.5]non-7-yl)-benzooxazol-5-yl]-amide], the half-maximal inhibitory concentration (IC50) stood at 451 nM.
